Literature values, collected in US12473247B2, “Encoded design integrated synthesis of nucleic acids, and phospholipids, and related pharmaceutical products” (priority 2023, dated 2025).

How the values were obtained:
[1] = ratio relative to cortisol = 1; pharmacological potency of corticosteroids

SMILES | solubility in aqueous | relative activity of dexamethasone:prednisolone:cortisol [1]
c1ccc2c(c1)ccc1c3ccccc3ccc21 [chrysene] | insoluble | 
C[C@]12CCC(=O)C=C1CC[C@@H]1[C@@H]2[C@@H](O)C[C@@]2(C)[C@H]1CC[C@]2(O)C(=O)CO [cortisol] |  | ~1
C[C@]12C=CC(=O)C=C1CC[C@@H]1[C@@H]2[C@@H](O)C[C@@]2(C)[C@H]1CC[C@]2(O)C(=O)CO [prednisolone] |  | ~4
